Data as given in US20170251655A2, “COMPOSITIONS AND METHODS FOR CAPTURING, KILLING OR REPELLING BED BUGS” (OLFACTOR LABORATORIES, INC., priority 2014, published 2017).
Where a name gives a salt, the structure may show the parent alone.

Tests used:
[1] = test system: bed bug (Cimex lectularius); assay: Bed bug repellency assay (filter paper harborage, petri dish); format: in vivo; conditions: for % Repellency / Repellency Category: individual compounds; for % Repellency: 10 microliters compound + 90 microliters isopropyl alcohol on filter paper tent, 10 bed bugs, 5 minutes, vs control; for Repellency Category: category from % repellency; for Ind % Rep (percent repellency of the individual compound): values obtained in Example 1 for the individual compound of a blend
Description: Compounds and blends of the present invention were assayed for their ability to modify bed bug (Cimex lectularius) behavior using a bed bug repellency assay. This assay takes advantage of the bed bug's natural instinct to seek harborage. Two petri dishes were obtained and the inner areas of each were sanded down (leaving the perimeter smooth.) Talc was applied on the perimeter and on the inside walls of the petri dishes with a small paint brush to prevent bed bugs from escaping. A cut off top portion of a plastic cup was placed upside down in the center of one petri dish to create a holding arena for the bed bugs. A large plastic secondary container was gathered and a paper towel was laid down inside the bottom. The petri dish was then placed inside and ten bed bugs were placed inside the cut off portion of the cup.
Next, two pieces of filter paper were cut down the middle to yield 4 equally sized halves. Three pieces were placed inside a glass dish […] and the remaining piece was placed in a separate dish. All four pieces were folded down the middle to create a “tent” or “harborage” when laid such that the folded crease faced up. 100 microliters of isopropyl alcohol was pipetted into three pieces of filter paper (all housed in the first glass dish.) In a separate 4 ml vial, 90 microliters of isopropyl alcohol was combined and vortexed with 10 microliters of the compound or compound combination being tested. 100 microliters of this solution [comprising a total of […] of compound(s)] was pipetted onto the filter paper in the separate dish. All filter papers were then allowed to dry. Once dry, experiments were conducted first with two filter paper halves comprising only the isopropyl alcohol (control experiment) and then with the remaining filter paper halves [one with only isopropyl alcohol and one comprising the test compound(s).] Filter paper halves were placed on opposing sides of experimental petri dishes and bed bugs were allowed to move freely within the dishes by removal of the plastic cup top. Movement was allowed to continue for 5 minutes before the number bed bugs beneath each filter paper tent was recorded.

[2] = test system: bed bug (Cimex lectularius); assay: Bed bug threshold assay (mouse bait, treated filter paper on acrylic rod bridges); format: in vivo; conditions: 90 μl isopropyl alcohol + 10 μl testing compound on filter paper; bed bugs crossing treated vs control; mouse as bait; 10 minutes
Description: Compounds and blends of the present invention were assayed for their ability to modify bed bug (Cimex lectularius) behavior using a bed bug threshold assay. Three interceptors were laid side by side and acrylic rods were stuck on to the sides with putty so that they went from interceptor to interceptor forming bridges. Paper towels sections of 6 inches by 2 inches were placed so that they hung off of the ends of the acrylic rods to form harborage for bed bugs. Next, 125 mm pieces of Whatman Filter paper treated either with the compound of interest (90 μl isopropyl alcohol+10 μl testing compound) or with control solution of 100 μl isopropyl alcohol were stuck to the top of the acrylic rods with the compound impregnated filter on one rod and control impregnated filter on the other. In the middle interceptor a mouse was placed as bait for the bed bugs. In either outside interceptors 10 bed bugs each were placed in holding dishes, allowed to equilibrate for 10 minutes then released on the harborage. Video footage at 1 second time intervals was obtained for 10 minutes then analyzed for bed bug movements. Repellency of any given compound or blend was calculated by counting how many bed bugs traversed the acrylic rods across either the treated or the control Whatman filter paper. Percent repellency was determined by comparing the number of bed bugs which crossed the treated Whatman filter paper to the number of bed bugs which crossed the control Whatman filter paper.

bed bugs [3] = assay: Bed bug luring assay (baited cup, overnight); format: in vivo; conditions: for Attractant Category: category from attractant activity value; for Att Act (attractant activity value): percentage of 10 bed bugs in baited cup, cottonball with 100 microliters compound or combination solution, overnight, dark
Description: Assays were conducted to measure the ability of compounds and compound combinations to attract bed bugs. A testing arena habitat comprising a small plastic container was placed inside of a larger, secondary container. The top half inch was removed from two bathroom sized plastic cups and each cup was placed on opposite sides of the testing arena habitat, one inch away from the wall. Each outer part of the cup was textured using sandpaper, as bed bugs cannot climb smooth surfaces. A paper towel was used to line the floor of the testing arena habitat. The top, removed portion of one of the cups was placed mouth side down in the center of the arena. In one of the cups, a cottonball was placed and treated with 100 microliters of compound or compound combination solution [comprising a total of […] of compound(s).] Ten bed bugs were placed within the center cut off cup top and the testing arena habitat was covered and placed within a dark, climate controlled room overnight.
The next day, the number of bed bugs that crawled into the baited cup were recorded and the attractant activity value was calculated. As used herein, the attractant activity value represents the percentage of bugs that crawled into the baited cup as compared to the total number of bed bugs. In the Table, “Att Act” refers to attract activity value.

C. lectularius = conditions: population of C. lectularius isolated in Arkansas; cited from earlier work
bed bugs [4] = conditions: study performed in Africa; cited from earlier work
[5] = test system: bed bug (Cimex lectularius); assay: Bed bug repellency assay (filter paper harborage, petri dish); format: in vivo; conditions: statement in the description, test not named

Compound | % Repellency [1] | Repellency Category [1] | % Repellency [2] | Attractant Category (bed bugs [3]) | Att Act (attractant activity value) (bed bugs [3]) | other results
O=CCCc1ccccc1 [BBC005, phenyl propyl aldehyde] | 100% | Very Strong (compounds with a percent repellency value of 80-100% were categorized as very strong repellents) | 74% | – | – | –
COC(=O)CCC(C)=O [BBC049, methyl levulinate] | – | – | – | Mild (Compounds or blends with an attractant activity value of 10-20% were categorized as mild attractants) | 10% | –
Clc1ccc(C(c2ccc(Cl)cc2)C(Cl)(Cl)Cl)cc1 [DDT, dichlorodiphenyltrichloroethane] | – | – | – | – | – | LD50 (C. lectularius): 100,000 ppm; bed bug activity level after treatment (bed bugs [4]): higher activity level
CCCC(C)=O [BBC065, 2-pentanone] | – | – | – | Moderate (Compounds or blends with an attractant activity value of 20-40% were categorized as moderate attractants) | 30% | –
CCCC1CCC(=O)O1 (stereo not drawn) [BBC021, gamma-heptalactone] | 71% | Strong (Compounds with a percent repellency value of 60-80% were categorized as strong repellents) | 91% | – | – | Ind % Rep (percent repellency of the individual compound) [1]: 71%
CC(=O)/C=C/C=C(C)C [BBC014, methyl heptadienone] | 87% | Very Strong (compounds with a percent repellency value of 80-100% were categorized as very strong repellents) | 64% | – | – | –
CCCCCCOC=O [BBC035, hexyl formate] | – | – | – | Moderate (Compounds or blends with an attractant activity value of 20-40% were categorized as moderate attractants) | 30% | –
C/C=C(\C)C=O [BBC062, trans-2-methyl-2-butenal] | – | – | – | – | – | Ind % Rep (percent repellency of the individual compound) [1]: 0%
COC(/C=C/c1ccccc1)OC [BBC013, cinnamic aldehyde dimethyl acetal] | 90% | Very Strong (compounds with a percent repellency value of 80-100% were categorized as very strong repellents) | – | – | – | –
O=C1CCCC1 [BBC069, cyclopentanone] | – | – | – | Strong (Compounds or blends with an attractant activity value of 40-60% were categorized as strong attractants) | 50% | –
COc1ccccc1O [BBC011, guaiacol] | – | – | – | – | – | bed bug repellency, in words [5]: repel bed bugs
C=CCc1ccc(O)c(OC)c1 [BBC002, eugenol] | – | – | – | – | – | bed bug repellency, in words [5]: repel bed bugs
COc1cnccn1 [BBC047, 2-methoxypyrazine] | – | – | – | Moderate (Compounds or blends with an attractant activity value of 20-40% were categorized as moderate attractants) | 30% | –
CCC(=O)OCCC(C)C [BBC051, isoamyl propionate] | – | – | – | Mild (Compounds or blends with an attractant activity value of 10-20% were categorized as mild attractants) | 10% | –
CC1=C2CCC(C)CC2OC1=O (stereo not drawn) [BBC054, menthalactone] | – | – | 95% | – | – | –
CCCC(=O)CCC [BBC057, heptanone-4] | – | – | 38% | – | – | –
methoxy cinnamic aldehyde [BBC046] | 23% | Mild (Compounds with a percent repellency value of 20-40% were categorized as mild repellents) | 92% | – | – | –
N#C/C=C/c1ccccc1 [BBC029, cinnamyl nitrile] | 56% | Moderate (Compounds with a percent repellency value of 40-60% were categorized as moderate repellents) | 92% | – | – | Ind % Rep (percent repellency of the individual compound) [1]: 56%
COc1nccnc1C [BBC067, 2-methoxy-3-methylpyrazine] | – | – | – | Mild (Compounds or blends with an attractant activity value of 10-20% were categorized as mild attractants) | 10% | –
CSC(C)=O [BBC060, methanethiol acetate] | – | – | – | Moderate (Compounds or blends with an attractant activity value of 20-40% were categorized as moderate attractants) | 20% | –
C/C=C/C(=O)OC [BBC039, methyl crotonate] | – | – | – | Moderate (Compounds or blends with an attractant activity value of 20-40% were categorized as moderate attractants) | 20% | –
2-methoxy-3(5or6) isopropylpyrazine [BBC006] | 100% | Very Strong (compounds with a percent repellency value of 80-100% were categorized as very strong repellents) | 100% | – | – | –
ultrazur [BBC016] | 84% | Very Strong (compounds with a percent repellency value of 80-100% were categorized as very strong repellents) | 64% | – | – | –
CCCOC=O [BBC070, propyl formate] | – | – | – | Moderate (Compounds or blends with an attractant activity value of 20-40% were categorized as moderate attractants) | 30% | –
COC(Cc1ccccc1)OC [BBC012, phenylacetaldehyde dimethyl acetate] | 100% | Very Strong (compounds with a percent repellency value of 80-100% were categorized as very strong repellents) | – | – | – | –
